Measurements published in PubChem BioAssay AID248 (DTP/NCI, 2004).
Values joined by “and” are separate entries in the source; they are usually repeats but may differ in a detail not shown here. Identical values can stand only once. Toxic doses and inconclusive results are not listed. Rule as the data show it: active = T/C of 150% or more; inactive = T/C below 125%. Square brackets hold non-standard residues; d marks the D form. Peptide text beside a SMILES is read from it. * marks the point of attachment. ξ: configuration not given here. ξL = CC(C)CC(N)C(=O)O; ClAc = O=C(CCl)*

Test system: L1210 leukemia ip in BDF1 mice, survival T/C
Test: NCI In Vivo Anticancer Drug Screen. Data for tumor model L1210 Leukemia (intraperitoneal) in B6D2F1 (BDF1) mice
Details: endpoint: mean survival time, higher = longer survival
In short: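 Survival endpoint. Drug-treated group vs vehicle group, expressed as T divided by C. Tumor passaged by transplantation.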

[1] = dose: 12.5 mg/kg/injection, schedule: Q01DX009 (ip), vehicle: saline
[2] = dose: 12.5 mg/kg/injection, schedule: Q04DX003 (ip), vehicle: saline
[3] = dose: 25.0 mg/kg/injection, schedule: Q01DX009 (ip), vehicle: saline
[4] = dose: 25.0 mg/kg/injection, schedule: Q04DX003 (ip), vehicle: saline
[5] = dose: 50.0 mg/kg/injection, schedule: Q04DX003 (ip), vehicle: saline
[6] = dose: 100.0 mg/kg/injection, schedule: Q01DX009 (ip), vehicle: Klucel (hydroxypropylcellulose) (HPC)
[7] = dose: 200.0 mg/kg/injection, schedule: Q01DX009 (ip), vehicle: Klucel (hydroxypropylcellulose) (HPC)
[8] = dose: 100.0 mg/kg/injection, schedule: Q04DX002 (ip), vehicle: Klucel (hydroxypropylcellulose) (HPC)
[9] = dose: 200.0 mg/kg/injection, schedule: Q04DX002 (ip), vehicle: Klucel (hydroxypropylcellulose) (HPC)
[10] = dose: 50.0 mg/kg/injection, schedule: Q01DX001 (ip), vehicle: carboxymethylcellulose (CMC)
[11] = dose: 100.0 mg/kg/injection, schedule: Q01DX001 (ip), vehicle: carboxymethylcellulose (CMC)
[12] = dose: 100.0 mg/kg/injection, schedule: Q04DX003 (ip), vehicle: saline
[13] = dose: 200.0 mg/kg/injection, schedule: Q01DX001 (ip), vehicle: carboxymethylcellulose (CMC)
[14] = dose: 400.0 mg/kg/injection, schedule: Q01DX001 (ip), vehicle: carboxymethylcellulose (CMC)
[15] = dose: 100.0 mg/kg/injection, schedule: Q01DX001 (ip), vehicle: saline
[16] = dose: 200.0 mg/kg/injection, schedule: Q01DX001 (ip), vehicle: saline
[17] = dose: 400.0 mg/kg/injection, schedule: Q01DX001 (ip), vehicle: saline
[18] = dose: 100.0 mg/kg/injection, schedule: Q01DX009 (ip), vehicle: saline with Tween-80
[19] = dose: 200.0 mg/kg/injection, schedule: Q01DX009 (ip), vehicle: saline with Tween-80
[20] = dose: 200.0 mg/kg/injection, schedule: Q04DX003 (ip), vehicle: saline
[21] = dose: 400.0 mg/kg/injection, schedule: Q01DX009 (ip), vehicle: saline with Tween-80
[22] = dose: 100.0 mg/kg/injection, schedule: Q04DX003 (ip), vehicle: saline with Tween-80
[23] = dose: 200.0 mg/kg/injection, schedule: Q04DX003 (ip), vehicle: saline with Tween-80
[24] = dose: 400.0 mg/kg/injection, schedule: Q04DX003 (ip), vehicle: saline with Tween-80

Measured: T/C

C1OC1C1CO1 (stereo unspecified)
inactive: dose: 6.25 mg/kg/injection, schedule: Q01DX009 (ip), vehicle: saline 92 % of control | dose: 10.0 mg/kg/injection, schedule: Q01DX001 (ip), vehicle: saline 106 % of control | [1] 104 % of control | [2] 110 % of control | dose: 20.0 mg/kg/injection, schedule: Q01DX001 (ip), vehicle: saline 103 % of control | [3] 114 % of control | [4] 119 % of control | dose: 40.0 mg/kg/injection, schedule: Q01DX001 (ip), vehicle: saline 114 % of control | dose: 44.0 mg/kg/injection, schedule: Q01DX001 (ip), vehicle: saline 105 % of control | [5] 105 % of control

COC(=O)c1ccccc1NC(=O)NCCBr
inactive: [6] 95 % of control | dose: 100.0 mg/kg/injection, schedule: Q04DX003 (ip), vehicle: Klucel (hydroxypropylcellulose) (HPC) 103 % of control | [7] 93 % of control | dose: 200.0 mg/kg/injection, schedule: Q04DX003 (ip), vehicle: Klucel (hydroxypropylcellulose) (HPC) 97 % of control | dose: 400.0 mg/kg/injection, schedule: Q01DX009 (ip), vehicle: Klucel (hydroxypropylcellulose) (HPC) 93 % of control | dose: 400.0 mg/kg/injection, schedule: Q04DX003 (ip), vehicle: Klucel (hydroxypropylcellulose) (HPC) 110 % of control

C/C=C\S(=O)(=O)c1ccccc1
inactive: dose: 25.0 mg/kg/injection, schedule: Q04DX002 (ip), vehicle: Klucel (hydroxypropylcellulose) (HPC) 98 % of control | dose: 50.0 mg/kg/injection, schedule: Q04DX002 (ip), vehicle: Klucel (hydroxypropylcellulose) (HPC) 98 % of control | [8] 105 % of control | [9] 89 % of control

Cc1cnc(N/N=C/c2ccccc2)nc1-c1ccccc1O
inactive: [8] 103 % of control | [9] 100 % of control | dose: 400.0 mg/kg/injection, schedule: Q04DX002 (ip), vehicle: Klucel (hydroxypropylcellulose) (HPC) 92 % of control

CC(=O)NNS(=O)(=O)c1ccccc1
inactive: dose: 100.0 mg/kg/injection, schedule: Q01DX001 (ip), vehicle: Klucel (hydroxypropylcellulose) (HPC) 102 % of control | [6] 106 % of control | dose: 200.0 mg/kg/injection, schedule: Q01DX001 (ip), vehicle: Klucel (hydroxypropylcellulose) (HPC) 100 % of control | [7] 95 % of control | dose: 400.0 mg/kg/injection, schedule: Q01DX001 (ip), vehicle: Klucel (hydroxypropylcellulose) (HPC) 105 % of control

CC(C)(C)NCCC(=O)c1ccccc1
inactive: [2] 98 % of control | [4] 102 % of control | [5] 101 % of control

CCN(CC)Cc1cc(Nc2c3ccccc3nc3cc(Cl)ccc23)ccc1O
inactive: [1] 101 % of control | [3] 98 % of control | dose: 30.0 mg/kg/injection, schedule: Q01DX Z (ip), vehicle: methylcellulose (MC) 113 % of control | dose: 30.0 mg/kg/injection, schedule: Q01DX Z (ip), vehicle: saline 101 % of control | dose: 45.0 mg/kg/injection, schedule: Q01DX Z (ip), vehicle: methylcellulose (MC) 100 % of control | dose: 45.0 mg/kg/injection, schedule: Q01DX Z (ip), vehicle: saline 109 % of control | [10] 102 % of control | dose: 50.0 mg/kg/injection, schedule: Q01DX009 (ip), vehicle: saline 103 % of control | dose: 67.0 mg/kg/injection, schedule: Q01DX Z (ip), vehicle: methylcellulose (MC) 101 % of control | dose: 67.0 mg/kg/injection, schedule: Q01DX Z (ip), vehicle: saline 107 % of control | [11] 102 % of control | dose: 100.0 mg/kg/injection, schedule: Q01DX Z (ip), vehicle: methylcellulose (MC) 103 % of control | [12] 91 % of control | [13] 105 % of control | [14] 102 % of control

OCC(O)C(O)C(O)C(c1ccc(Cl)cc1)c1ccc(Cl)cc1 (stereo unspecified)
inactive: dose: 50.0 mg/kg/injection, schedule: Q01DX001 (ip), vehicle: saline 104 % of control and 103 % of control and 101 % of control | [15] 102 % of control and 103 % of control and 97 % of control | [16] 98 % of control and 101 % of control and 97 % of control | [17] 96 % of control and 91 % of control and 101 % of control

CC1=C(C(=O)O)C(C)CC(=O)N1c1ccccc1 (stereo unspecified)
inactive: [10] 102 % of control | [11] 96 % of control | [13] 93 % of control | [14] 96 % of control

O=C1NC2CC=CCC12 (stereo unspecified)
inactive: [18] 91 % of control | [12] 101 % of control | [19] 89 % of control | [20] 101 % of control | [21] 89 % of control | dose: 400.0 mg/kg/injection, schedule: Q04DX003 (ip), vehicle: saline 94 % of control

CN(C)c1ccc(/C=C/C(=O)c2ccc([N+](=O)[O-])cc2)cc1
inactive: dose: 3.0 mg/kg/injection, schedule: Q01DX009 (ip), vehicle: gum acacia 100 % of control | dose: 6.0 mg/kg/injection, schedule: Q01DX009 (ip), vehicle: gum acacia 96 % of control | dose: 12.0 mg/kg/injection, schedule: Q01DX009 (ip), vehicle: gum acacia 94 % of control | dose: 12.5 mg/kg/injection, schedule: Q01DX009 (ip), vehicle: gum acacia 91 % of control | dose: 100.0 mg/kg/injection, schedule: Q01DX009 (ip), vehicle: gum acacia 87 % of control | dose: 100.0 mg/kg/injection, schedule: Q04DX003 (ip), vehicle: gum acacia 89 % of control | dose: 200.0 mg/kg/injection, schedule: Q04DX003 (ip), vehicle: gum acacia 86 % of control | dose: 400.0 mg/kg/injection, schedule: Q01DX009 (ip), vehicle: gum acacia 96 % of control | dose: 400.0 mg/kg/injection, schedule: Q04DX003 (ip), vehicle: gum acacia 89 % of control

O=C1C=C2CCCCC2C1 (stereo unspecified)
inactive: dose: 50.0 mg/kg/injection, schedule: Q01DX009 (ip), vehicle: saline with Tween-80 100 % of control | [18] 88 % of control

c1ccc(-c2cccc([Si](c3ccccc3)(c3ccccc3)c3cccc(-c4ccccc4)c3)c2)cc1
inactive: [22] 92 % of control | [23] 88 % of control | [24] 97 % of control

C=CCNC(=O)Oc1cccc(NC(=O)/C=C/C)c1
inactive: [18] 88 % of control | [22] 97 % of control | [23] 95 % of control | [24] 92 % of control

COc1cc([N+](=O)[O-])cc2c(C)cc(=O)[nH]c12
inactive: [15] 95 % of control | dose: 100.0 mg/kg/injection, schedule: Q01DX009 (ip), vehicle: saline 103 % of control | [16] 99 % of control | dose: 200.0 mg/kg/injection, schedule: Q01DX009 (ip), vehicle: saline 92 % of control | [17] 93 % of control | dose: 400.0 mg/kg/injection, schedule: Q01DX009 (ip), vehicle: saline 93 % of control

CC(C)CC(NC(=O)CCl)C(=O)NCC(=O)O (stereo unspecified) (ClAc-[ξL]-Gly-OH)
inactive: [18] 94 % of control | [22] 101 % of control | [23] 95 % of control | [24] 103 % of control

NC(=O)c1ccc[n+](CCc2nc(N)c3[nH]cnc3n2)c1
inactive: [5] 97 % of control | [12] 97 % of control | [20] 103 % of control

c1ccc2c(-c3nc4ccccc4[nH]3)cccc2c1
inactive: [18] 91 % of control | [22] 93 % of control | [19] 96 % of control | [23] 93 % of control | [21] 93 % of control | [24] 102 % of control

O=C1CCCCC1c1cccc2ccccc12 (stereo unspecified)
inactive: dose: 100.0 mg/kg/injection, schedule: Q01DX001 (sc), vehicle: olive oil, sesame oil, peanut oil 97 % of control | dose: 200.0 mg/kg/injection, schedule: Q01DX001 (sc), vehicle: olive oil, sesame oil, peanut oil 104 % of control | dose: 400.0 mg/kg/injection, schedule: Q01DX001 (sc), vehicle: olive oil, sesame oil, peanut oil 106 % of control

O=P(Oc1ccc(S(=O)(=O)c2ccccc2)cc1)(Oc1ccc(S(=O)(=O)c2ccccc2)cc1)Oc1ccc(S(=O)(=O)c2ccccc2)cc1
inactive: [18] 90 % of control | [22] 90 % of control | [19] 93 % of control | [23] 91 % of control | [21] 91 % of control | [24] 95 % of control
